Measured values: the supplement of paper PMC10307832

Columns and labels:
Test in all cases: relative viability (nuclei count vs DMSO), 5 days (fraction); higher = more cells survive
Motesanib + OSI-027 = compound: CC1(C)CNc2cc(NC(=O)c3cccnc3NCc3ccncc3)ccc21 [Motesanib] + COc1cccc2cc(-c3nc([C@H]4CC[C@H](C(=O)O)CC4)n4ncnc(N)c34)[nH]c12 [OSI-027] (partner 0.5 µM)
Method in brief: (§1)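 Medians of duplicate plates are given as relative viability. That measure is the nuclei count in treated wells divided by the count in vehicle wells. Counts were taken on 4× images of lung cancer cell lines in 1536-well plates, 5 days after pin-tool dosing the day after seeding with one drug alone or a fixed anchor-drug dose plus five library-drug doses (not always all listed) in √10 steps.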

Motesanib + Crizotinib = compound: CC1(C)CNc2cc(NC(=O)c3cccnc3NCc3ccncc3)ccc21 [Motesanib] + C[C@@H](Oc1cc(-c2cnn(C3CCNCC3)c2)cnc1N)c1c(Cl)ccc(F)c1Cl [Crizotinib] (partner 1 µM)
Method in brief: as §1

Motesanib + Decitabine = compound: CC1(C)CNc2cc(NC(=O)c3cccnc3NCc3ccncc3)ccc21 [Motesanib] + Nc1ncn([C@H]2C[C@H](O)[C@@H](CO)O2)c(=O)n1 [Decitabine] (partner 2 µM)
Method in brief: as §1

[1] = compound: C[C@@]1(C(=O)Nc2ccc(F)nc2)CCCN1c1nc(Nc2cc(C3CC3)n[nH]2)c2cccn2n1 + COc1cccc2cc(-c3nc([C@H]4CC[C@H](C(=O)O)CC4)n4ncnc(N)c34)[nH]c12 [OSI-027] (partner 0.5 µM)
Method in brief: as §1

| Cell Line | relative viability (Motesanib + OSI-027; first compound 0.01 µM) | relative viability (Motesanib + OSI-027; first compound 0.03162 µM) | relative viability (Motesanib + OSI-027; first compound 0.1 µM) | relative viability (Motesanib + OSI-027; first compound 0.3162 µM) | relative viability (Motesanib + OSI-027; first compound 1 µM) | relative viability (Motesanib + Crizotinib; first compound 0.01 µM) | relative viability (Motesanib + Crizotinib; first compound 0.03162 µM) | relative viability (Motesanib + Crizotinib; first compound 0.1 µM) | relative viability (Motesanib + Crizotinib; first compound 0.3162 µM) | relative viability (Motesanib + Crizotinib; first compound 1 µM) | relative viability (Motesanib + Decitabine; first compound 0.01 µM) | relative viability (Motesanib + Decitabine; first compound 0.03162 µM) | relative viability (Motesanib + Decitabine; first compound 0.1 µM) | relative viability (Motesanib + Decitabine; first compound 0.3162 µM) | relative viability (Motesanib + Decitabine; first compound 1 µM) | relative viability ([1]; first compound 0.04 µM) | relative viability ([1]; first compound 0.1265 µM) | relative viability ([1]; first compound 0.4 µM) | relative viability ([1]; first compound 1.265 µM) |
| --- | --- | --- | --- | --- | --- | --- | --- | --- | --- | --- | --- | --- | --- | --- | --- | --- | --- | --- | --- |
| NCI-H1975 | 0.66 | 0.702 | 0.747 | 0.677 | 0.669 | 1.05 | 0.848 | 0.93 | 0.889 | 0.983 | 0.364 | 0.459 | 0.406 | 0.487 | 0.426 | 0.663 | 0.498 | 0.423 | 0.527 |
| CAL-12T | 0.628 | 0.731 | 0.685 | 0.555 | 0.677 | 0.627 | 0.56 | 0.664 | 0.758 | 0.559 | – | – | – | – | – | 0.486 | 0.382 | 0.292 | 0.275 |
| NCI-H1623 | 0.454 | 0.475 | 0.475 | 0.389 | 0.409 | – | – | – | – | – | – | – | – | – | – | 0.423 | 0.32 | 0.307 | 0.302 |
| HCC-44 | 0.552 | 0.431 | 0.633 | 0.633 | 0.544 | 0.883 | 0.8 | 0.801 | 0.765 | 0.901 | 0.972 | 0.952 | 0.932 | 1.07 | 0.932 | 0.447 | 0.213 | 0.298 | 0.191 |
| EKVX | 0.684 | 0.655 | 0.788 | 0.732 | 0.674 | 0.988 | 0.889 | 0.916 | 1.09 | 0.898 | 0.385 | 0.404 | 0.427 | 0.401 | 0.32 | 0.574 | 0.399 | 0.391 | 0.373 |
| NCI-H1651 | 0.848 | 0.663 | 0.628 | 0.652 | 0.615 | 0.836 | 0.835 | 0.786 | 0.912 | 0.838 | 0.591 | 0.751 | 0.661 | 0.585 | 0.731 | 0.658 | 0.525 | 0.423 | 0.501 |
| NCI-H1944 | 0.37 | 0.424 | 0.438 | 0.475 | 0.427 | 1.08 | 1.06 | 1.17 | 1.02 | 1.17 | 0.477 | 0.444 | 0.495 | 0.534 | 0.508 | 0.306 | 0.256 | 0.225 | 0.235 |
| NCI-H1703 | – | – | – | – | – | 0.826 | 0.545 | 0.303 | 0.155 | 0.172 | – | – | – | – | – | – | – | – | – |
| Calu-6 | – | – | – | – | – | 0.794 | 0.744 | 0.78 | 0.758 | 0.783 | – | – | – | – | – | – | – | – | – |
| EBC-1 | – | – | – | – | – | 0.178 | 0.19 | 0.205 | 0.193 | 0.181 | – | – | – | – | – | – | – | – | – |
| SW 1573 | 0.561 | 0.583 | 0.549 | 0.736 | 0.709 | 0.686 | 0.887 | 0.913 | 0.746 | 0.973 | 0.532 | 0.511 | 0.458 | 0.586 | 0.553 | 0.548 | 0.24 | 0.283 | 0.302 |
